According to ChEMBL document CHEMBL5096210, “Discovery of Betulinic Acid Derivatives as Potent Intestinal Farnesoid X Receptor Antagonists to Ameliorate Nonalcoholic Steatohepatitis” (J Med Chem, 2022):
Calls of active or inactive are those of the source. No cut-off for these calls is given here.

Experiments:
[1] = Drug distribution in C57BL6 mouse intestine at 10 mg/kg, po administered as single dose measured after 8 hrs; type: ADME, organism-based; details: in vivo
Liver [2] = experiment: Anti-NASH activity in GAN diet-induced […] mouse liver assessed as reduction in macrosteatosis by Oil Red O staining based assay; type: functional
Mus musculus [3] = experiment: Anti-NASH activity in GAN-induced […] mouse assessed as reduction in random blood glucose level at 10 mg/kg measured upto 120 mins; type: functional, organism-based
Liver [4] = experiment: Anti-NASH activity in GAN diet-induced […] mouse liver assessed as reduction in hepatocyte collagen deposition by Oil Red O staining based assay; type: functional, cell-based
[5] = biological target: T1, Bile acid receptor (Mus musculus) (UniProt Q60641); experiment: In vivo antagonist activity against FXR in mouse assessed as reduction in Tgr5 expression in small intestine organoids; type: functional
T1 sequence (whole entry): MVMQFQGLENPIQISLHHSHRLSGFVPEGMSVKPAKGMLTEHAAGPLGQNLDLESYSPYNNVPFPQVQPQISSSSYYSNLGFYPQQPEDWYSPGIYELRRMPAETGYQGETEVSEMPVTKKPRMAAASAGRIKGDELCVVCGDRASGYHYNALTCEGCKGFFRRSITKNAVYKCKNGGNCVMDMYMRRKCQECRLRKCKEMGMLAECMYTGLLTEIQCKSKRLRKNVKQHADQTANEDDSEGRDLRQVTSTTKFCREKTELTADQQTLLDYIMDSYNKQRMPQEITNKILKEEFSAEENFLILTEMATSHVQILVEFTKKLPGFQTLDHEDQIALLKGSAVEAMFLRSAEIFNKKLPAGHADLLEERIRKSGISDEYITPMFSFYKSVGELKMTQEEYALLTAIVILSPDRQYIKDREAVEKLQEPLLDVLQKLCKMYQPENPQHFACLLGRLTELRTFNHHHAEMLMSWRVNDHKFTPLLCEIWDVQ

Liver [6] = experiment: Anti-NASH activity in GAN diet-induced […] mouse liver assessed as reduction in hepatocyte collagen deposition by Sirius red staining based analysis; type: functional, cell-based
Mus musculus [7] = species: Mus musculus; experiment: Anti-NASH activity in GAN diet-induced […] mouse assessed as reduction in Cd36 mRNA expression level; type: functional, organism-based
Mus musculus [8] = species: Mus musculus; experiment: Anti-NASH activity in GAN diet-induced […] mouse assessed as downregulation of Ccl2 level; type: functional, organism-based
Mus musculus [9] = species: Mus musculus; experiment: Anti-NASH activity in GAN diet-induced […] mouse assessed as suppression of Shp expression; type: functional, organism-based
Mus musculus [10] = species: Mus musculus; experiment: Anti-NASH activity in GAN diet-induced […] mouse assessed as suppression of O-sta expression; type: functional, organism-based
Mus musculus [11] = species: Mus musculus; experiment: Anti-NASH activity in GAN diet-induced […] mouse assessed as upregulation CYP7A1 protein by Western blot analysis; type: functional, organism-based
Mus musculus [12] = species: Mus musculus; experiment: Anti-NASH activity in GAN diet-induced […] mouse assessed as reduction in A-sma mRNA expression; type: functional, organism-based
[13] = biological target: T1, Bile acid receptor (Mus musculus); experiment: In vivo antagonist activity against FXR in mouse assessed as stimulation of organoids growth in presence of FXR agonist; type: functional
Mus musculus [14] = experiment: Anti-NASH activity in GAN diet-induced […] mouse assessed as reduction of ceramide level in serum administered orally for 12 weeks; type: functional, organism-based; details: route po
Mus musculus [15] = species: Mus musculus; experiment: Anti-NASH activity in GAN diet-induced […] mouse assessed as reduction in bile acid loss in cecum content; type: functional, organism-based
Mus musculus [16] = experiment: Anti-NASH activity in HFMCD diet-induced […] mouse assessed as reduction in AST serum level at 30 mg/kg, po for 4 weeks; type: functional, organism-based
Mus musculus [17] = experiment: Anti-NASH activity in HFMCD diet-induced […] mouse assessed as reduction in hepatic hydroxyproline level at 30 mg/kg, po for 4 weeks; type: functional, organism-based
Mus musculus [18] = experiment: Anti-NASH activity in GAN-induced mouse assessed as reduction in fasting glucose level at 10 mg/kg measured upto 120 mins; type: functional, organism-based
Mus musculus [19] = species: Mus musculus; experiment: Anti-NASH activity in GAN diet-induced […] mouse assessed as suppression of FXR expression; type: functional, organism-based
[20] = Drug metabolism in C57BL6 mouse serum assessed as ((1S,3aS,5aR,5bR,7aR,9R,11aR,11bR,13aR,13bR)-9-hydroxy-1-isopropyl-5a,5b,8,8,11a-pentamethylicosahydro-1H-cyclopenta[a]chrysene-3a-carbonyl)glycine formation at 10 mg/kg, po administered as single dose measured after 2 hrs; type: ADME, organism-based; details: in vivo
Mus musculus [21] = species: Mus musculus; experiment: Anti-NASH activity in GAN diet-induced […] mouse assessed as decrease in cholesterol in liver; type: functional, organism-based

Which Drug uptake [1] does the source give for `CCCC(=O)O[C@@H]1CC[C@]2(C)[C@H]3CC[C@@H]4[C@H]5[C@H](C(C)C)CC[C@]5(C(=O)NCC(=O)O)CC[C@@]4(C)[C@]3(C)CC[C@H]2C1(C)C` here?
The Drug uptake was “Active”.

What about the Activity (Liver [2]) of the same molecule?
Its Activity is “Active”.

And the Activity (Mus musculus [3])?
The Activity was “Active”.

What about the Activity (Liver [4]) of the same molecule?
Its Activity is “Active”.

What about the Activity [5] of the same molecule?
Its Activity is “Active”.

What about the Activity (Liver [6]) of the same molecule?
Its Activity is “Active”.

And the Activity (Mus musculus [7])?
Its Activity is “Active”.

What about the Activity (Mus musculus [8]) of the same molecule?
Its Activity is “Active”.

What about the Activity (Mus musculus [9]) of the same molecule?
The Activity was “Active”.

What about the Activity (Mus musculus [10]) of the same molecule?
Its Activity is “Active”.

And the Activity (Mus musculus [11])?
The Activity was “Active”.

What about the Activity (Mus musculus [12]) of the same molecule?
The Activity was “Active”.

And the Activity [13]?
The Activity was “Active”.

What about the Activity (Mus musculus [14]) of the same molecule?
The Activity was “Active”.

And the Activity (Mus musculus [15])?
The Activity was “Active”.

And the Activity (Mus musculus [16])?
The Activity was “Active”.

And the Activity (Mus musculus [17])?
Its Activity is “Active”.

What about the Activity (Mus musculus [18]) of the same molecule?
The Activity was “Active”.

And the Activity (Mus musculus [19])?
The Activity was “Active”.

What about the Drug metabolism [20] of the same molecule?
Its Drug metabolism is “Metabolite_Detected”.

What about the Activity (Mus musculus [21]) of the same molecule?
Its Activity is “Active”.
